According to patent US8030487B2, “2-amino—5-substituted pyrimidine inhibitors” (TargeGen, Inc., priority 2006, dated 2011):

Target: T1, human c-Src (Homo sapiens, UniProt P12931)
T1 construct: purchased Panvera/Invitrogen
Assay: Src kinase inhibition (KinaseGlo residual ATP)
Assay type: biochemical
Details: ATP 3 μM, 90 min room temperature
Procedure: The ability of compounds of the present invention to inhibit the activity of various groups of kinases was tested. Kinases that were tested are described below. All kinase reactions were conducted in 96-well plates with a final reaction volume of 50 μl.
Recombinant human c-Src or Yes, or Fyn, or Lck (28 ng/well, Panvera/Invitrogen, Madison Wis.), ATP (3 μM), a tyrosine kinase substrate (PTK2, 250 μM, Promega Corp., Madison Wis.), and test agents (at concentrations ranging from about 1 nM/l to about 100 μM/l), in the presence of Src kinase reaction buffer (Upstate USA, Lake Placid N.Y.). After reacting for about 90 minutes at room temperature, residual ATP was determined using a luciferase-based assay (KinaseGlo, Promega Corp.) as a measure of kinase activity. Data from four wells were then averaged and used to determine IC50 values for the test compounds (Prism software package, GraphPad Software, San Diego Calif.).

T1 sequence (P12931 whole entry): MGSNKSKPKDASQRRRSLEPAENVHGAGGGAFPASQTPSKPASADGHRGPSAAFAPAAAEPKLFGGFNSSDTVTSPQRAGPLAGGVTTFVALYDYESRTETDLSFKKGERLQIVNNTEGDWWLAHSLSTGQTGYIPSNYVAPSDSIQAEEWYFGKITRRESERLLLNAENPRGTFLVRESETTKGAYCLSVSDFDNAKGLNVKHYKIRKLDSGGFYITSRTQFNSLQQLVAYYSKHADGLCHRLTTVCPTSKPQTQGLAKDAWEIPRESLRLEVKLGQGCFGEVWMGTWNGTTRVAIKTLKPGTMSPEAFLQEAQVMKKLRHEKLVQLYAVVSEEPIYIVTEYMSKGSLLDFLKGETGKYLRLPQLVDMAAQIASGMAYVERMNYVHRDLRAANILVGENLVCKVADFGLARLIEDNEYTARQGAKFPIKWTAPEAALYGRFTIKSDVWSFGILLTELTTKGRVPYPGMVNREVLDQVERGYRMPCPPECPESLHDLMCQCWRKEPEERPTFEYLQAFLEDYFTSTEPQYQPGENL

| Compound | IC50 |
| --- | --- |
| O=C(Nc1ccc(Cl)c(C(=O)Nc2cnc(Nc3ccc(C(=O)NCCN4CCCC4)nc3)nc2)c1)c1cccc(C(F)(F)F)c1 | 0.005 µM |
| Cc1ccc(NC(=O)c2c(F)cc(F)cc2F)cc1C(=O)Nc1cnc(Nc2cccc(CCCN3CCCC3)c2)nc1 | 0.102 µM |
| Cc1ccc(NC(=O)c2cccc(C(F)(F)F)c2)cc1C(=O)Nc1cnc(Nc2ccc(C(=O)NCCN3CCCC3)cc2)nc1 | 0.0017 µM |
| CN1CCN(C(=O)c2ccc(Nc3ncc(NC(=O)c4cc(NC(=O)c5cccnc5)ccc4Cl)cn3)cc2)CC1 | 0.0932 µM |
| Cc1ccc(NC(=O)c2cccc(C(F)(F)F)c2)cc1Nc1cnc(Nc2cccc(CCCN3CCCC3)c2)nc1 | 0.755 µM |
| Cc1cccc(C(=O)Nc2ccc(Cl)c(C(=O)Nc3cnc(Nc4ccc(S(=O)(=O)CCCN5CCCC5)cc4)nc3)c2)c1 | 0.0116 µM |
| Cc1ccc(NC(=O)c2ccccc2)cc1C(=O)Nc1cnc(Nc2cccc(OCCN3CCCC3)c2)nc1 | 0.0166 µM |
| O=C(Nc1ccc(Cl)c(C(=O)Nc2cnc(Nc3ccc(S(=O)(=O)C4CCNCC4)cc3)nc2)c1)c1cccs1 | 0.0382 µM |
| N#Cc1ccc(C(=O)Nc2ccc(Cl)c(C(=O)Nc3cnc(Nc4ccc(S(=O)(=O)C5CCNCC5)cc4)nc3)c2)cc1 | 0.032 µM |
| COc1ccc(C(=O)Nc2ccc(Cl)c(C(=O)Nc3cnc(Nc4ccc(S(=O)(=O)C5CCNCC5)cc4)nc3)c2)cc1 | 0.0175 µM |
| O=C(Nc1cnc(Nc2cccnc2)nc1)c1cc(Nc2ccc3ccccc3n2)ccc1Cl | 0.454 µM |
| Cc1ccc(NC(=O)C(C)(C)C)cc1C(=O)Nc1cnc(Nc2ccc(OCCN3CCCC3)cc2)nc1 | > 10 µM |
| O=C(Nc1cnc(Nc2ccc(S(=O)(=O)CCCN3CCCC3)cc2)nc1)c1cccc(NC(=O)c2cccc(C(F)(F)F)c2)c1 | 0.0674 µM |
| O=C(Nc1cnc(Nc2ccc(OCCN3CCCC3)cc2)nc1)c1cc(NC(=O)C2CCCCC2)ccc1Cl | 0.0194 µM |
| Cc1ccc(NC(=O)Cc2cccc(C(F)(F)F)c2)cc1C(=O)Nc1cnc(Nc2cccnc2)nc1 | 0.0569 µM |
| O=C(Nc1cnc(Nc2cccc(OCCN3CCCC3)c2)nc1)c1cc(Nc2ccccn2)ccc1Cl | 0.169 µM |
| O=C(Nc1ccc(C(=O)Nc2cnc(Nc3cccc(OCCN4CCCC4)c3)nc2)c(Cl)c1)c1cccc(C(F)(F)F)c1 | 0.0657 µM |
| CCOC(=O)c1cccc(Nc2ncc(NC(=O)c3cc(NC(=O)c4cccc(C(F)(F)F)c4)ccc3Cl)cn2)c1 | 0.0134 µM |
| Nc1ncc(NC(=O)c2cc(NC(=O)c3cccc(C(F)(F)F)c3)ccc2Cl)cn1 | 0.072 µM |
| CC(=O)Nc1ccc(Cl)c(C(=O)Nc2cnc(Nc3ccc(S(=O)(=O)C4CCNCC4)cc3)nc2)c1 | 2.6 µM |
| O=C(Nc1cnc(Nc2ccc(CCCN3CCCC3)cc2)nc1)c1cc(Nc2ccc3ccccc3n2)ccc1Cl | 0.407 µM |
| O=C(Nc1ccc(Cl)c(C(=O)Nc2cnc(NCCN3CCCC3)nc2)c1)c1cccc(C(F)(F)F)c1 | > 10 µM |
| Cc1cc(C(=O)Nc2ccc(Cl)c(C(=O)Nc3cnc(Nc4ccc(OCCN5CCCC5)cc4)nc3)c2)no1 | 0.0775 µM |
| Cc1ccc(S(=O)(=O)NCc2ccccc2)cc1Nc1cnc(Nc2ccc(S(=O)(=O)NCCN3CCCC3)cc2)nc1 | 1.3 µM |
| Cc1ccc(S(N)(=O)=O)cc1Nc1cnc(Nc2ccc(S(=O)(=O)NCCN3CCCC3)cc2)nc1 | ~10 µM |
| O=C(Nc1cnc(Nc2cccc(OCCN3CCCC3)c2)nc1)c1cc(NC(=O)C(F)(F)F)ccc1Cl [drawing 168] | 0.0634 µM |
| O=C(Nc1ccc(Cl)c(C(=O)Nc2cnc(Nc3ccc(CCCN4CCCC4)cc3)nc2)c1)c1cccc(C(F)(F)F)c1 [drawing 172] | 0.0028 µM |
| Cc1ccc(NC(=O)C(F)(F)F)cc1C(=O)Nc1cnc(Nc2cccc(OCCN3CCCC3)c2)nc1 [drawing 173] | 0.0506 µM |
| O=C(Nc1ccc(Cl)c(C(=O)Nc2cnc(Nc3ccc(CCCN4CCCC4)cc3)nc2)c1)c1cccc(C(F)(F)F)c1 [drawing 180] | 0.0026 µM |
